Earlier results, collected in patent publication US20050267140A1, “Method for treating abnormal cell growth” (priority 2004, published 2005).
Read-outs that look alike come from different tables or passages of the source.

Test system: previously untreated patients with metastatic colorectal cancer
[1] = capecitabine treatment arms, 2500 mg/m^2/day for 14 days every 3 weeks

For CCCCCOC(=O)Nc1nc(=O)n([C@@H]2O[C@H](C)[C@@H](O)[C@H]2O)cc1F [capecitabine, 5′-deoxy-5-fluoro-N-[(pentyloxy)-carbonyl]-cytidine], the Median survival (European trial (N=602), p=0.30) is given as 13.3 months, the Median survival (US trial (N=605), p=0.24) is given as 12.5 months and the “Grade 3-4 diarrhea” value [1] is given as 14%. The “Grade 3-4 hand-foot syndrome” value [1] was 17%, the Overall response rate (first of the 2 trials as listed ('respectively'), p=0.014) was 21% and the Overall response rate (second of the 2 trials as listed ('respectively'), p=0.03) was 21%.
